Test system: lung-resident ILCs
Experiment: SMART-Seq2 plate-based scRNA-seq of lung-resident ILCs from PBS-, IL-25- or IL-33-treated mice, differential gene expression by logistic regression (Tables 3, 4)
Format: in vivo, mouse
Source text: Mice and in vivo ILC activation. C57B1/6J mice were purchased from the Jackson Laboratory. Nmur1-LacZ reporter mice with a LacZ cassette knocked into the Nmur1 locus were rederived from Nmur1^tm1.1(KOMP)Vlcg sperm obtained from the trans-NIH Knock-Out Mouse Project (KOMP) Repository. NMU-deficient mice (NMU-KO) were rederived from B6.129S2-Nmu<tm1Mko> embryos from the RIKEN BioResource Center. For experiments with Nmur1-LacZ (Nmur1-KO) and NMU-KO mice, littermates that were either homozygous or heterozygous for the wild type allele were used as controls. Mice were housed under specific-pathogen-free conditions. For experiments, mice were matched for sex and age, and most mice were 6-10 weeks old. Where indicated, mice were anesthetized with Isoflurane and treated intranasally with the indicated stimuli (500 ng IL-25, 500 ng IL-33, or 20 μg Neuromedin U) daily for three consecutive days. The total administered volume was 20 μl for all conditions. Mice were randomly assigned to treatment groups after matching for sex and age. […] Mice were treated intranasally with 10 μg HDM on day 0, 7, 8, and 9, prior to sacrifice on day 10. All experiments were conducted in accordance with animal protocols approved by the Harvard Medical Area Standing Committee on Animals or BWH IACUC.
Fluorescence-activated cell sorting of innate lymphoid cells. After dissociation, single cell suspensions were incubated with CD90.2 MicroBeads (Miltenyi Biotec) on ice and enriched for CD90.2^+ cells by magnetic separation using LS columns according to the manufacturer's protocol. CD90.2^+ lung cells were then stained on ice with antibodies for sorting. ILCs were defined as 7AAD^− CD45^+ CD90.2^+ CD127^+ Lineage (CD11b, CD11c, CD19, NK1.1, […], CD4, CD8a, TCRβ, TCRγδ)^− cells and sorted on a BD FACS Aria (BD Biosciences).
For full-length scRNA-Seq, single ILCs were sorted into 96-well plates containing 5 ul TCL Buffer (QIAGEN) with 1% 2-Mercaptoethanol, centrifuged and frozen at −80° C. SMART-Seq2 protocol was carried out as previously described^23 with minor modifications in the reverse transcription step. cDNA was amplified with 22 cycles and fragmented with one-eighth of the standard Illumina NexteraXT reaction volume. Single-cell libraries were pooled and paired-end sequenced (38 bp×2) with a 75 cycle Nextseq 500 high output V2 kit.
Analysis of SMART-Seq2 plate-based scRNA-Seq data. Reads were aligned to mm10 using Kallisto (Bray, N. L., Pimentel, H., Meisted, P. & Pachter, L. Near-optimal probabilistic RNA-seq quantification. Nat Biotechnol 134, 525-527, doi:10.1038/nbt.3519 (2016)) quant, version 0.42.3. The R package tximport (Soneson, C., Love, M. I. & Robinson, M. D. Differential analyses for RNA-seq: transcript-level estimates improve gene-level inferences [version 2; referees: 2 approved]. F1000Research 4, doi:10.12688/f1000research.7563.2 (2016)), version 1.2.0, was used to convert the output to gene counts and traditional TPM values. Because of the variability in read counts per cell across plates, even from the same condition, as well as in the number of genes per cell across conditions, QC was performed for each of eight plates individually in order to remove cells that were outliers with respect to either measure. Out of 752 cells, 606 cells met QC criteria (234 from control, 152 from IL-25 treated mice, and 220 from IL-33 treated mice), and the number of genes per cell in this set ranged from 1,625 to 6,375. Genes that were not expressed with log(TPM)>2.5 in at least two cells were removed from further analysis. Subsequent analysis proceeded analogously to the droplet-based RNA-seq analysis, with parameter settings that reflected both the wider dynamic range of expression and much smaller cell numbers. The minimum ILC signature score required in ILC type assignment was 0.3. Variable genes were identified by running MeanVarPlot with x.low.cutoff=0.1, y.cutoff=1.5, and x.high.cutoff=10, resulting in a set of 519 genes. […]

IL33
0610031J06Rik expression coeff: 1.33 | 1700017B05Rik expression coeff: −1.5 | 1700113H08Rik expression coeff: −1.32 | 4632428N05Rik expression coeff: 1.58 | AA467197 expression coeff: 2.99 | AI593442 expression coeff: −3.15 | AI836003 expression coeff: −1.26 | AW112010 expression coeff: 0.998 | Abtb2 expression coeff: 1.34 | Acot7 expression coeff: 1.78 | Adrbk1 expression coeff: 1.08 | Adsl expression coeff: −0.98 | Ahcyl2 expression coeff: −1.24 | Amd1 expression coeff: −1.75 | Anxa2 expression coeff: 1.81 | Ap3d1 expression coeff: 0.94 | Arf5 expression coeff: 0.972 | Arhgap1 expression coeff: 1.12 | Arhgap26 expression coeff: 1.3 | Asl expression coeff: 1.31 | Asph expression coeff: −1.56 | Atp8b4 expression coeff: 1.07 | Atxn7l3b expression coeff: 0.957 | Bcl2a1d expression coeff: 0.97 | Bcl3 expression coeff: 1.42 | Bcl6 expression coeff: 1.98 | Bmp2 expression coeff: −2.03 | Brix1 expression coeff: −1.21 | C1qbp expression coeff: −1.08 | Cap1 expression coeff: 1.24 | Cblb expression coeff: 0.969 | Ccdc50 expression coeff: 0.948 | Ccdc142 expression coeff: −1.56 | Ccng1 expression coeff: 0.916 | Ccr2 expression coeff: −1.11 | Cd247 expression coeff: 1.52 | Chdh expression coeff: 1.07 | Chordc1 expression coeff: 1.09 | Chst11 expression coeff: 1.25 | Cirbp expression coeff: −1.67 | Commd10 expression coeff: −1.3 | Cox10 expression coeff: 0.894 | Cpsf7 expression coeff: 1.13 | Crlf2 expression coeff: 1.16 | Csf1 expression coeff: −1.61 | Cst7 expression coeff: 1.5 | Ctla4 expression coeff: 2.65 | Ctsw expression coeff: 1.07 | Cybrd1 expression coeff: −1.22 | Dcaf12 expression coeff: 0.975 | Ddrgk1 expression coeff: −0.935 | Ddx20 expression coeff: −1.92 | Ddx58 expression coeff: 0.912 | Dennd5a expression coeff: 0.993 | Dgka expression coeff: 1.02 | Dhx35 expression coeff: −1.51 | Dhx37 expression coeff: −0.889 | Dhx58 expression coeff: 2.39 | Dkk3 expression coeff: 0.959 | Dock10 expression coeff: −0.886 | E030030I06Rik expression coeff: −1.01 | Ecm1 expression coeff: 1.16 | Endod1 expression coeff: 1.51 | Epsti1 expression coeff: 1.72 | Eva1b expression coeff: 1.29 | Exosc4 expression coeff: −0.925 | Extl3 expression coeff: −1.19 | Fam118a expression coeff: −0.991 | Fbxl21 expression coeff: −2.6 | Ffar2 expression coeff: 1.38 | Fhl2 expression coeff: −0.933 | Fosb expression coeff: −0.948 | Foxo3 expression coeff: 1.17 | Fus expression coeff: −0.954 | Gal3st3 expression coeff: −1.08 | Gba expression coeff: 0.976 | Gbp4 expression coeff: 0.935 | Gbp6 expression coeff: 1.87 | Gbp9 expression coeff: 1.12 | Gga1 expression coeff: 1.33 | Gigyf1 expression coeff: −0.966 | Glrx expression coeff: 1.26 | Gm12250 expression coeff: 3.39 | Gnai2 expression coeff: 1.04 | Gng2 expression coeff: 1.35 | Gnl3l expression coeff: −1.25 | Gp49a expression coeff: 1.62 | Gpr108 expression coeff: 0.909 | Grn expression coeff: 1.55 | Gskip expression coeff: 1.72 | Gucd1 expression coeff: 1.09 | H2-T9 expression coeff: 1.1 | H2-T10 expression coeff: 0.906 | H2-T22 expression coeff: 1.27 | Herc6 expression coeff: 1.21 | Hpcal1 expression coeff: 1.26 | Hsph1 expression coeff: 1.26 | Idh2 expression coeff: −1.43 | Ifi35 expression coeff: 0.95 | Ifngr2 expression coeff: −0.881 | Ifrd2 expression coeff: −1.74 | Igfbp4 expression coeff: −2.3 | Igsf5 expression coeff: −1.13 | Il2rb expression coeff: 1.27 | Il5 expression coeff: 1.34 | Il13 expression coeff: 1.57 | Impact expression coeff: −1.54 | Inpp1 expression coeff: 1.29 | Inpp4b expression coeff: −0.999 | Inpp5b expression coeff: 1.22 | Irf4 expression coeff: 1.58 | Irf7 expression coeff: 1.43 | Isg15 expression coeff: 3.16 | Isg20 expression coeff: 2.26 | Itgae expression coeff: 1.21 | Kit expression coeff: −1.23 | Krit1 expression coeff: 1.04 | Lamp2 expression coeff: 0.996 | Lancl1 expression coeff: −1.58 | Lat2 expression coeff: 1.05 | Lcmt2 expression coeff: −1.12 | Lgals3bp expression coeff: 1.95 | Lgals3 expression coeff: 1.4 | Lilrb4 expression coeff: 2.11 | Lpcat2 expression coeff: −1.56 | Lsm6 expression coeff: −1.12 | Lxn expression coeff: 1.29 | Ly6a expression coeff: 1.67 | Map2k4 expression coeff: 1.64 | Marf1 expression coeff: 1.15 | Med16 expression coeff: −0.941 | Mfsd1 expression coeff: 1.05 | Mgat1 expression coeff: 1.21 | Mgat5 expression coeff: 1.08 | Mier3 expression coeff: −1.41 | Mkl2 expression coeff: −0.923 | Mlec expression coeff: 0.999 | Morc3 expression coeff: 1.05 | Mov10 expression coeff: 1.45 | Mplkip expression coeff: −1.13 | Mrp63 expression coeff: 1.21 | Mrpl40 expression coeff: −1.08 | Mrpl52 expression coeff: 0.944 | Mrpl53 expression coeff: −1.26 | Mrps18a expression coeff: −1.11 | Ms4a4b expression coeff: 2.44 | Ms4a6b expression coeff: 2.02 | Mtfmt expression coeff: −1.57 | Mxd1 expression coeff: 1.05 | Mybbp1a expression coeff: −0.978 | Myg1 expression coeff: −1.26 | Myo1f expression coeff: 1.04 | Myo1g expression coeff: 1.31 | Naa60 expression coeff: 1.11 | Nbn expression coeff: −1.39 | Ndufaf3 expression coeff: 1.52 | Neu3 expression coeff: −1.92 | Nfil3 expression coeff: 1.77 | Nipal1 expression coeff: 1.74 | Nlrc5 expression coeff: 1.3 | Nol6 expression coeff: −1.23 | Nol9 expression coeff: −1.02 | Nop56 expression coeff: −1.41 | Npc2 expression coeff: 1.53 | Npnt expression coeff: 0.949 | Nrip1 expression coeff: 1.07 | Nsmaf expression coeff: 0.914 | Oas1a expression coeff: 2.09 | Ogfr expression coeff: 1.12 | Omd expression coeff: −1.13 | Parp3 expression coeff: 1.21 | Parp10 expression coeff: 1.34 | Parp14 expression coeff: 1.21 | Paxip1 expression coeff: −0.998 | Pdcd1 expression coeff: 1.35 | Pde4b expression coeff: 1.24 | Per1 expression coeff: −1.16 | Pfas expression coeff: −1.41 | Phc3 expression coeff: 0.936 | Phf11a expression coeff: 1.98 | Phf11b expression coeff: 1.89 | Picalm expression coeff: 1 | Pigv expression coeff: −1.36 | Pin4 expression coeff: 1.28 | Plac8 expression coeff: 1.62 | Plekha5 expression coeff: −1.23 | Plxdc2 expression coeff: −0.903 | Pml expression coeff: 1.2 | Ppif expression coeff: −1.91 | Ppp1r15a expression coeff: −1.09 | Pydc4 expression coeff: 1.37 | Pyhin1 expression coeff: 1.04 | Rab7l1 expression coeff: 2.2 | Rab8b expression coeff: 1.03 | Rab33b expression coeff: −1.1 | Rdh1 expression coeff: −1.91 | Rdh13 expression coeff: −1.75 | Rilpl2 expression coeff: 1.43 | Rnf125 expression coeff: 1.06 | Rtp4 expression coeff: 2.55 | Samd9l expression coeff: 1.2 | Sbno2 expression coeff: 1.2 | Sdc4 expression coeff: −0.924 | Sdccag3 expression coeff: 1.08 | Sema4a expression coeff: −0.903 | Sema4d expression coeff: 1.28 | Sesn3 expression coeff: 1.18 | Shank2 expression coeff: −3.62 | Sipa1 expression coeff: 1.34 | Slc25a24 expression coeff: 1.33 | Slc44a2 expression coeff: 1.22 | Slfn2 expression coeff: 1.6 | Smn1 expression coeff: −1.01 | Sntb1 expression coeff: 1.19 | Soat1 expression coeff: 1.07 | Socs1 expression coeff: −1.32 | Socs2 expression coeff: −1.33 | Socs3 expression coeff: 1.44 | Sp100 expression coeff: 1.07 | Sptssa expression coeff: −0.952 | Ssr3 expression coeff: 0.999 | St3gal6 expression coeff: −1.32 | Stab1 expression coeff: 1.65 | Stat1 expression coeff: 1.23 | Syt11 expression coeff: 0.979 | Taf1d expression coeff: 1.1 | Tango6 expression coeff: −2.16 | Tap1 expression coeff: 1.17 | Tap2 expression coeff: 1.07 | Tet3 expression coeff: 1.32 | Tmem33 expression coeff: 1.08 | Tmem176a expression coeff: −1 | Tmem176b expression coeff: −1.23 | Tmem209 expression coeff: −1.27 | Tmem229b expression coeff: 1.01 | Tnfrsf18 expression coeff: −1.12 | Tnfsf10 expression coeff: −1.88 | Tpm4 expression coeff: 0.969 | Tradd expression coeff: 1.29 | Trafd1 expression coeff: 1.81 | Trim12c expression coeff: 1.16 | Trim30a expression coeff: 1.18 | Trim34a expression coeff: 1.29 | Trim30d expression coeff: 1.14 | Trip13 expression coeff: −2.7 | Trp53inp1 expression coeff: 1.16 | Ttc19 expression coeff: 1.44 | Ttc39b expression coeff: 1.16 | Ube2h expression coeff: 1.05 | Usp18 expression coeff: 1.6 | Usp36 expression coeff: −1.09 | Vdr expression coeff: 2.04 | Vmp1 expression coeff: 1.4 | Xrcc3 expression coeff: −1.02 | Zbp1 expression coeff: 2.38 | Zc3h12a expression coeff: −1.12 | Zcchc10 expression coeff: −0.914 | Zfand6 expression coeff: 1.38 | Zfc3h1 expression coeff: 1.14 | Zfp110 expression coeff: −1.24 | Zfp825 expression coeff: −1.02
